In article PMC4706877, “Antibacterial and Cytotoxic Activity of Compounds Isolated from Flourensia oolepis” (Evidence-based Complementary and Alternative Medicine : eCAM, 2015):
In brackets after ≈: the same amount, converted by molar mass. Read-outs that look alike come from different tables or passages of the source.

How the values were obtained:
[1] = system: K562 chronic myeloid leukemia cells; experiment: MTT cell proliferation assay; assay type: cell-based, human; conditions: for IC50: K562, MTT, 72 h, read-out: IC50 values and 95% confidence limits (lower, upper)
Description: (§1) The HEK293T non-tumor derived cell line and human isolated mononuclear cells (PBMC) were also tested. […] Cells were cultured at 37°C in a 5% CO2 humidified environment.
(§2) To investigate the cytotoxic potential of the isolated compounds, the MTT colorimetric assay was performed. […] The compounds were evaluated at a final maximum concentration of 100 μM. After 72 hours, 20 μL of 5 mg/mL solution of MTT in sterile PBS was added to each well and further incubated for 4 h. Then, the supernatants were removed and replaced with 100 μL DMSO to solubilize the resulting purple formazan crystals produced from metabolically viable cells. Absorbance was measured with an iMark micro-plate reader (Bio-Rad, USA) at 595 nm. Two wells were used for each concentration of the products assayed and three independent experiments were performed. […] The percentage of cytotoxic activity of the assayed compounds was determined by the following formula: cytotoxicity (%) = [1 − (optical density of treated cells − optical density DMSO)/(optical density of ethanol control cells − optical density DMSO)] × 100.
(§3) Data were analyzed by one-way analysis of variance (ANOVA) and means were compared using Bonferroni's comparison test, with p ≤ 0.05 considered as statistically significant.

[2] = system: CEM/ADR5000 cells (MDR, P-glycoprotein overexpressing); experiment: cells; assay type: cell-based, human; conditions: for IC50: CEM/ADR5000, MTT, 72 h, read-out: IC50 values and 95% confidence limits (lower, upper)
Description: as §1
(§4) The latter concentration was then used for maintenance of the cells. Lucena 1 were continuously cultured in the presence of 60 nM DOX. Both cell lines were grown in drug-free medium 3-4 days before the experiments. Overexpression of P-glycoprotein (P-gp) in both MDR variants was verified by flow cytometry using FITC-labeled mouse anti-human P-gp (BD Pharmingen, USA). Cells were subcultured twice a week from frozen stocks and used before the 20th passage. All experiments were performed with cells in the logarithmic growth phase with cell viabilities over 90%, determined by trypan blue staining.
as §2, §3

[3] = system: Lucena 1 cells (MDR, P-glycoprotein overexpressing); experiment: cells; assay type: cell-based, human; conditions: for IC50: Lucena 1, MTT, 72 h, read-out: IC50 values and 95% confidence limits (lower, upper)
Description: as §1, §4, §2, §3

CCRF-CEM cells [4] = experiment: Cell cycle distribution by flow cytometry (PI); assay type: cell-based, human; conditions: 2 × IC50, 72 h
Description: Control cells were devoid of 1 and negative controls contained 1% ethanol. After treatment, cells were harvested and washed twice with ice cold PBS. Then, cells were fixed with 70% cold ethanol and kept at 4°C for 24 h. Before analysis, the cells were washed twice with PBS and stained with a solution containing propidium iodide (PI, 50 μg/mL, Sigma-Aldrich CO, USA) and RNase A (100 μg/mL, Sigma-Aldrich CO, USA) in PBS (pH 7.4) for 30 min in the dark. DNA content was evaluated by flow cytometry. The relative distribution of at least 20,000 cells was analyzed using FlowJo software version 7.6.2 (Tree Star, Inc. OR, USA).

CCRF-CEM cells [5] = experiment: Apoptosis by Annexin V/PI double staining; assay type: cell-based, human; conditions: 2 × IC50, 72 h
Description: (§5) After incubation, cells were harvested, washed, and suspended in cold PBS. The proportion of cells undergoing apoptosis was examined by double staining using allophycocyanin (APC) conjugated Annexin-V (BD Pharmingen, USA) and propidium iodide (Sigma-Aldrich CO, USA). Over the following hour, the fluorescence of ten thousand cells, including that of control groups, was assayed and populations were analyzed with FlowJo software version 7.6.2 (Tree Star, Inc., OR, USA). Percentages of Annexin-V positive cells (PI− or PI+) indicate early or late apoptosis, respectively.

K562 cells = experiment: Apoptosis by Annexin V/PI double staining; assay type: cell-based, human; conditions: 2 × IC50, 72 h
Description: as §5

ALL cells = experiment: MTT assay, summary; assay type: cell-based; conditions: Homo sapiens, read-out: IC50, range
Source text: (§6) CCRF-CEM acute lymphoblastic leukemia (ALL) and K562 chronic myeloid leukemia (CML) cells and their MDR P-glycoprotein overexpressing variants, CEM/ADR5000 and Lucena 1, respectively, were a generous gift from Dr. T. Efferth (Institute of Pharmacy and Biochemistry, Johannes Gutenberg University, Mainz, Germany) and Dr. V. Rumjanek (Instituto de Bioquímica Médica Leopoldo de Meis, Universidade Federal do Rio de Janeiro, Rio de Janeiro, Brazil), respectively. The HEK293T non-tumor derived cell line and human isolated mononuclear cells (PBMC) were also tested. […]
(§7) To investigate the cytotoxic potential of the isolated compounds, the MTT colorimetric assay was performed. […] The compounds were evaluated at a final maximum concentration of 100 μM. […] Absorbance was measured with an iMark micro-plate reader (Bio-Rad, USA) at 595 nm. […] The percentage of cytotoxic activity of the assayed compounds was determined by the following formula: cytotoxicity (%) = [1 − (optical density of treated cells − optical density DMSO)/(optical density of ethanol control cells − optical density DMSO)] × 100.

CML cells = experiment: MTT assay, summary; assay type: cell-based; conditions: Homo sapiens, read-out: IC50, range
Source text: as §6, §7

normal hepatocytes = system: normal hepatocytes; set-up: method as in PMID 15223357; conditions: trypan blue exclusion method; cited from earlier work

Q: Which IC50 ([1]; Homo sapiens, K562, 72 h) does the source give for `O=C(/C=C/c1ccccc1)c1ccc(O)cc1O` [Compound 1, 2′,4′-dihydroxychalcone] here?
A: < 30 µM

Q: And the “selectivity index (SI)” value ([1]; IC50 PBMC / IC50 K562)?
A: 3.0

Q: What about the IC50 [1] of the same molecule?
A: 27.5 µM

Q: And the IC50 [2]?
A: 9.9 µM

Q: What about the “resistant index (RI) = IC50 resistant cells/IC50 sensitive cells” value ([2]; CEM/ADR5000 vs CCRF-CEM) of the same molecule?
A: 1.5

Q: And the IC50 ([2]; Homo sapiens, ADR5000, 72 h)?
A: < 10 µM

Q: What about the “selectivity index (IC50 ratio)” value ([2]; IC50 HEK293T / IC50 CEM/ADR5000) of the same molecule?
A: 6.8

Q: And the “selectivity index (IC50 ratio)” value ([2]; IC50 PBMC / IC50 CEM/ADR5000)?
A: 8.4

Q: And the IC50 ([3]; Homo sapiens, Lucena 1, 72 h)?
A: < 30 µM

Q: What about the IC50 [3] of the same molecule?
A: 30 µM

Q: What about the “resistant index (RI) = IC50 resistant cells/IC50 sensitive cells” value ([3]; Lucena 1 vs K562) of the same molecule?
A: 1.1

Q: What about the “hypodiploid sub-G1 population” value (CCRF-CEM cells [4]; ethanol control 1%) of the same molecule?
A: 10%

Q: And the “cells in the G2/M phase” value (CCRF-CEM cells [4]; ethanol control 7%)?
A: 34%

Q: And the “early and late apoptotic cells” value (CCRF-CEM cells [5])?
A: 26.7%

Q: And the “early and late apoptotic cells” value (K562 cells)?
A: 68.7%

Q: And the IC50 (ALL cells)?
A: 6.6 to 9.9 µM

Q: What about the IC50 (CML cells) of the same molecule?
A: 27.5 to 30 µM

Q: And the IC50 (normal hepatocytes)?
A: 34 µg/mL (≈ 142 µM)
